Laboratory results reported in patent US8633167B2, “Method for the protection of trees” (Syngenta Crop Protection LLC, priority 2006, dated 2014).

Tested on: Ips engravers beetles
Experiment: Bolt study (Example 1): Ips attack and gallery construction on loblolly pine bolts cut after trunk injection
Assay type: in vivo
Settings: for reduction of length of egg galleries compared to check trees / reduction of total number of egg galleries compared to check trees: May
From the text: The intent of the study was to evaluate the efficacy of systemic injections of emamectin benzoate in reducing success of pine bark beetle attacks on loblolly pine and determine the duration of treatment efficacy. As SPB populations were extremely low in Texas in 2004, Ips engravers beetles were used as indicator species.
Two 20-year-old, recently thinned loblolly pine plantations were selected on land owned by Temple-Inland Forest Products Corporation about 5 km south of Wells (Angelina County), Tex. Trees in one plantation were injected for use in a bolt study (Example 1). Trees in a 0.2 ha section of the second plantation were injected as part of a single-tree protection study (Example 2). A staging area also was set up in the second plantation where bolts from the first plantation were exposed to bark beetles and wood borers.
Seventy-five loblolly pine trees, Pinus taeda L., 15-20 cm diameter at breast height (DBH), were selected in March 2004. Each treatment was injected into four cardinal points about 0.3 m above the ground on each of 15 trees in April (16th-23rd) using the new Arborjet Tree IV™ microinfusion system (Arborjet, Inc. Woburn, Mass.). The treatments included: • 1) Emamectin benzoate (Denim®, 1.92% ai, Syngenta Crop Science)—Denim® was mixed 1:1 with methanol and applied at 18.6 ml solution per inch of tree diameter at breast height (DBH) (=0.2 g active per inch DBH). • 2) Check (untreated)
After 1 (May 24), 3 (July 19) and 5 (September) months post-injection, 5 trees of each treatment were felled and two 1.5 m long bolts were removed from the 3 m and 8 m heights of the bole. The bolts were transported to a nearby plantation that was recently thinned and contained fresh slash material. Each bolt was placed about 1 m apart on discarded, dry pine bolts to maximize surface area available for colonization as well as to discourage predation by ground and litter-inhabiting organisms. To facilitate timely bark beetle colonization, packets of bark beetle pheromones (racemic ipsdienol + lanerione combination, ipsenol or cis-verbenol; Phero Tech, Inc., Delta, BC, Canada) were attached separately to three 1 m stakes evenly spaced in the study area. Racemic ipsdienol and cis-verbenol were used with the second and third series of bolts deployed in July and September, respectively. The packets were removed after 2 weeks when signs of attacks (boring dust) were observed on most test bolts, signaling that naturally-produced pheromones were present.
A clear panel of acetate (10 cm wide by 25 cm long) was attached to the center of each bolt after deployment of bolts to monitor arrival of bark beetles. The top surface of each panel was coated entirely with Stikem Special® trapping compound (Michel and Pelton, Emeryville, Calif.). The traps were left in place for two weeks.
Each series of bolts were retrieved about 3 weeks after deployment, after observing many cerambycid egg niches on the bark surface of most bolts. There was concern that if cerambycid larvae were allowed to develop too long, their feeding activity would obscure or obliterate the Ips galleries. Thus, each series of bolts were retrieved and stored temporarily in a TFS seedling cooler (˜45° F.) to slow cerambycid development until the bolts could be evaluated.
In the laboratory, two 10×50 cm strips (total=1000 cm^2) of bark were removed from each bolt. […]

[1] = 1 Month Post-Injection (May), bolt height 3 m
[2] = 1 Month Post-Injection (May), bolt height 8 m
[3] = 3 Months Post-Injection (July), bolt height 3 m
[4] = 3 Months Post-Injection (July), bolt height 8 m
[5] = 5 Months Post-Injection (September), bolt height 3 m
[6] = 5 Months Post-Injection (September), bolt height 8 m

4″-deoxy-4″-N-methylamino avermectin B1a/B1b [Emamectin]
Length of Egg Galleries Total Length [1]: 30.7 a cm | Length of Egg Galleries With Brood % Total [1]: 49.5% | Length of Egg Galleries With Brood cm [1]: 15.2 a cm | Length of Egg Galleries Without Brood % Total [1]: 50.5% | Length of Egg Galleries Without Brood cm [1]: 15.5 a cm | Mean # of Ips caught/Trap [1]: 3.8 a | Mean # of Nuptial Chambers Without Egg Galleries No. [1]: 14.6 c | Mean # of Nuptial Chambers Without Egg Galleries Total [1]: 78.5 | Mean # of Nuptial Chambers with Egg Galleries No. [1]: 4.0 a | Mean # of Nuptial Chambers with Egg Galleries Total [1]: 21.5 | Mean Total # of Nuptial Chambers [1]: 18.6 a | Number of Egg Galleries Total Galleries [1]: 12.4 a | Number of Egg Galleries With Brood % Total [1]: 19.4% | Number of Egg Galleries With Brood No. [1]: 2.4 a | Number of Egg Galleries Without Brood % Total [1]: 80.6% | Number of Egg Galleries Without Brood No. [1]: 10.0 a | Length of Egg Galleries Total Length [2]: 13.5 a cm | Length of Egg Galleries With Brood % Total [2]: 8.9% | Length of Egg Galleries With Brood cm [2]: 1.2 a cm | Length of Egg Galleries Without Brood % Total [2]: 91.1% | Length of Egg Galleries Without Brood cm [2]: 12.3 a cm | Mean # of Ips caught/Trap [2]: 4.8 a | Mean # of Nuptial Chambers Without Egg Galleries No. [2]: 9.0 c | Mean # of Nuptial Chambers Without Egg Galleries Total [2]: 69.2 | Mean # of Nuptial Chambers with Egg Galleries No. [2]: 4.0 a | Mean # of Nuptial Chambers with Egg Galleries Total [2]: 30.8 | Mean Total # of Nuptial Chambers [2]: 13.0 ab | Number of Egg Galleries Total Galleries [2]: 4.2 a | Number of Egg Galleries With Brood % Total [2]: 4.8% | Number of Egg Galleries With Brood No. [2]: 0.2 a | Number of Egg Galleries Without Brood % Total [2]: 95.2% | Number of Egg Galleries Without Brood No. [2]: 4.0 a | Length of Egg Galleries Total Length [3]: 0.0 a cm | Length of Egg Galleries With Brood cm [3]: 0.0 a cm | Length of Egg Galleries Without Brood cm [3]: 0.0 a cm | Mean # of Ips caught/Trap [3]: 1.8 a | Mean # of Nuptial Chambers Without Egg Galleries No. [3]: 11.0 b | Mean # of Nuptial Chambers Without Egg Galleries Total [3]: 100.0 | Mean # of Nuptial Chambers with Egg Galleries No. [3]: 0.0 a | Mean # of Nuptial Chambers with Egg Galleries Total [3]: 0.0 | Mean Total # of Nuptial Chambers [3]: 11.0 ab | Number of Egg Galleries Total Galleries [3]: 0.0 a | Number of Egg Galleries With Brood No. [3]: 0.0 a | Number of Egg Galleries Without Brood No. [3]: 0.0 a | Length of Egg Galleries Total Length [4]: 0.0 a cm | Length of Egg Galleries With Brood cm [4]: 0.0 a cm | Length of Egg Galleries Without Brood cm [4]: 0.0 a cm | Mean # of Ips caught/Trap [4]: 3.4 a | Mean # of Nuptial Chambers Without Egg Galleries No. [4]: 8.4 c | Mean # of Nuptial Chambers Without Egg Galleries Total [4]: 100.0 | Mean # of Nuptial Chambers with Egg Galleries No. [4]: 0.0 a | Mean # of Nuptial Chambers with Egg Galleries Total [4]: 0.0 | Mean Total # of Nuptial Chambers [4]: 8.4 b | Number of Egg Galleries Total Galleries [4]: 0.0 a | Number of Egg Galleries With Brood No. [4]: 0.0 a | Number of Egg Galleries Without Brood No. [4]: 0.0 a | Length of Egg Galleries Total Length [5]: 0.0 a cm | Length of Egg Galleries With Brood cm [5]: 0.0 a cm | Length of Egg Galleries Without Brood cm [5]: 0.0 a cm | Mean # of Ips caught/Trap [5]: 1.2 a | Mean # of Nuptial Chambers Without Egg Galleries No. [5]: 3.8 b | Mean # of Nuptial Chambers Without Egg Galleries Total [5]: 100.0 | Mean # of Nuptial Chambers with Egg Galleries No. [5]: 0.0 a | Mean # of Nuptial Chambers with Egg Galleries Total [5]: 0.0 | Mean Total # of Nuptial Chambers [5]: 3.8 a | Number of Egg Galleries Total Galleries [5]: 0.0 a | Number of Egg Galleries With Brood No. [5]: 0.0 a | Number of Egg Galleries Without Brood No. [5]: 0.0 a | Length of Egg Galleries Total Length [6]: 0.0 a cm | Length of Egg Galleries With Brood cm [6]: 0.0 a cm | Length of Egg Galleries Without Brood cm [6]: 0.0 a cm | Mean # of Ips caught/Trap [6]: 0.4 a | Mean # of Nuptial Chambers Without Egg Galleries No. [6]: 4.4 b | Mean # of Nuptial Chambers Without Egg Galleries Total [6]: 100.0 | Mean # of Nuptial Chambers with Egg Galleries No. [6]: 0.0 a | Mean # of Nuptial Chambers with Egg Galleries Total [6]: 0.0 | Mean Total # of Nuptial Chambers [6]: 4.4 a | Number of Egg Galleries Total Galleries [6]: 0.0 a | Number of Egg Galleries With Brood No. [6]: 0.0 a | Number of Egg Galleries Without Brood No. [6]: 0.0 a | construction of egg galleries (July and September, all bolts): completely prevented | attacks unsuccessful (July and September, both heights): 100% | reduction of length of egg galleries compared to check trees (3 m): 94% | reduction of total number of egg galleries compared to check trees (3 m): 81% | reduction of length of egg galleries compared to check trees (8 m): 99% | reduction of total number of egg galleries compared to check trees (8 m): 96% | attacks unsuccessful (bolts evaluated in May, 3 m height): 79% | attacks unsuccessful (bolts evaluated in May, 8 m height): 69% | preventing successful attacks by Ips bark beetles and cerambycids (both examples, one, three and five months after injection): highly effective
